Data taken from the SangsterLogP compilation.

Experiment: method code SF-AS, from DOI: 10.1002/jps.2600800814, PMID: 1791539

| SMILES | logP |
| --- | --- |
| Cc1cnc(C#N)cn1 | 0.26 |
| Cc1cncc(Cl)n1 | 1.03 |
| Fc1cncc(Cl)n1 | 1.15 |
| Cc1cncc(N)n1 | 0.35 |
| CN(C)c1cncc(Cl)n1 | 1.95 |
| Nc1cnc(Cl)cn1 | 0.67 |
| CN(C)c1cncc(C#N)n1 | 1.12 |
| CCOc1cnc(Cl)cn1 | 1.99 |
| N#Cc1ncc(Cl)nc1C#N | 0.95 |
| COc1cncc(C)n1 | 1.29 |
| CCc1ncc(C)nc1CC | 1.95 |
| Cc1cncc(C#N)n1 | 0.44 |
| Cc1cncc(C)n1 | 0.54 |
| Cc1cncc(C(N)=O)n1 | -0.13 |
| Cc1cnc(Cl)cn1 | 1.08 |
| Clc1cnc(Cl)cn1 | 1.58 |
| CCc1nc(C#N)c(C#N)nc1Cl | 1.79 |
| CCCCc1nc(C#N)c(C#N)nc1C | 2.3 |
| Cc1cnc(C)c(C)n1 | 0.95 |

| SMILES | logP |
| --- | --- |
| Fc1cncc(F)n1 | 0.74 |
| CN(C)c1cnc(Cl)cn1 | 1.7 |
| CCCCc1nc(C#N)c(C#N)nc1Cl | 2.89 |
| COc1cncc(C#N)n1 | 0.95 |
| COc1cncc(N(C)C)n1 | 1.99 |
| NC(=O)c1cncc(Cl)n1 | 0.28 |
| Cc1nc(C#N)c(C#N)nc1Cl | 1.29 |
| Cc1cnc(C)c(Cl)n1 | 1.5 |
| COc1cncc(N)n1 | 0.73 |
| CCOc1cncc(Cl)n1 | 2.22 |
| Cc1nc(C)c(C)nc1C | 1.28 |
| CCCOc1cncc(Cl)n1 | 2.71 |
| CN(C)c1cncc(C(N)=O)n1 | 0.38 |
| Nc1cncc(N)n1 | -0.45 |
| Cc1cncc(N(C)C)n1 | 1.57 |
| Clc1cncc(Cl)n1 | 1.53 |
| Nc1cncc(Cl)n1 | 0.95 |
| N#Cc1cncc(Cl)n1 | 0.79 |

Second part, the molecule after the results:

| logP | SMILES |
| --- | --- |
| 0.61 | CCOC(=O)c1cnc(C)cn1 |
| 1.1 | CC(=O)Nc1cncc(Cl)n1 |
| 2.24 | Cc1nccnc1OC(C)C |
| 2.1 | CCCCc1nccnc1C |
| 0.54 | Cc1nccnc1C |
| 1.65 | COc1cnc(N(C)C)cn1 |
| 1.24 | CCOC(=O)c1cncc(N(C)C)n1 |
| 1.2 | CCOC(=O)c1cncc(OC)n1 |
| 0.47 | COC(=O)c1cncc(Cl)n1 |
| -0.02 | COC(=O)c1nccnc1C(=O)OC |
| 1.65 | COc1cncc(Cl)n1 |
| 0.9 | COC(=O)c1cncc(N(C)C)n1 |
| 0.38 | N#Cc1nccnc1C#N |
| 0.1 | COC(=O)c1cncc(C)n1 |
| 1.07 | CCc1nccnc1C |
| 1.57 | CCCc1nccnc1C |
| 1.51 | CCc1nccnc1CC |
| 1.24 | COc1nccnc1C |
| 1.52 | COc1cnc(Cl)cn1 |

| logP | SMILES |
| --- | --- |
| 0.82 | COc1cncc(NC(C)=O)n1 |
| 0.65 | CCOC(=O)c1nccnc1C(=O)OCC |
| 1.98 | CCOc1cncc(OC)n1 |
| -0.25 | Cc1cnc(C(N)=O)cn1 |
| 1.8 | CCc1nccnc1OC |
| 0.63 | COc1cnc(N)cn1 |
| 0.38 | CC(=O)Nc1cncc(C)n1 |
| 2.55 | CCOc1cncc(OCC)n1 |
| 1.81 | CSc1nccnc1C |
| 0.61 | CCOc1cncc(C(N)=O)n1 |
| 0.51 | CCOC(=O)c1cncc(C)n1 |
| 0.56 | CC(=O)Nc1cnc(Cl)cn1 |
| 0.69 | COC(=O)c1cncc(OC)n1 |
| 1.58 | COc1cncc(OC)n1 |
| 0.13 | COc1cncc(C(N)=O)n1 |
| 1.14 | COc1cnc(OC)cn1 |
| 1.82 | CCOc1nccnc1C |
| 0.17 | COC(=O)c1cnc(C)cn1 |
